This passage reports TGI and GI50 results from PubChem BioAssay (NCI).

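Cultured in 96-well plates, cells were exposed to test compound for 48 hours across five concentrations. Here, GI50 denotes the concentration required for 50% inhibition of growth. TGI is the concentration that stops growth completely.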

Among the test systems are COLO 205 colon; CCRF-CEM leukemia; UO-31 renal; RXF 393 renal; A498 renal; SNB-78 CNS; UACC-257 melanoma; LXFL 529 NSCLC; TK-10 renal; DLD-1 colon.
Assay in all cases: NCI anticancer screen, dose series, 48 h

As to `N#C/C(=C\c1ccc(O)c(O)c1)C(N)=S`, the TGI in the experiment with COLO 205 colon was over 100 µM; with CCRF-CEM leukemia, over 55.3 µM; with UO-31 renal, over 100 µM; with RXF 393 renal, over 89.7 µM; in the experiment on A498 renal, over 100 µM; in the experiment with SNB-78 CNS it was over 100 µM. In addition, the TGI in the experiment on UACC-257 melanoma is 97.7 µM; with LXFL 529 NSCLC it was over 100 µM; in the experiment with TK-10 renal, over 100 µM; with DLD-1 colon, over 100 µM.

For the compound `CCCCCCCCCCCC(=O)OCC1OC(n2cc(F)c(=O)[nH]c2=O)C(NC(=O)OCc2ccccc2)C(OC(=O)CCCCCCCCCCC)C1O` (stereo not given), the TGI in the experiment on COLO 205 colon, in the experiment on CCRF-CEM leukemia, with UO-31 renal, in the experiment with RXF 393 renal, in the experiment with A498 renal and in the experiment on SNB-78 CNS was over 100 µM throughout. Further, the TGI with UACC-257 melanoma, in the experiment on LXFL 529 NSCLC, in the experiment on TK-10 renal and in the experiment on DLD-1 colon was over 100 µM each time.

With `NNC(=O)/C(=C/c1ccc(Cl)cc1Cl)NC(=O)c1ccccc1`, the TGI with COLO 205 colon, in the experiment on CCRF-CEM leukemia, with UO-31 renal, with RXF 393 renal, in the experiment on A498 renal and in the experiment on SNB-78 CNS was over 100 µM each time. For the same compound, the TGI with UACC-257 melanoma, with LXFL 529 NSCLC, in the experiment with TK-10 renal and in the experiment on DLD-1 colon was over 100 µM in each case.

Take `O=[N+]([O-])C1C2C=CC(C2)[C@H]1c1ccco1` (stereo not given in full): the TGI in the experiment on COLO 205 colon, in the experiment with CCRF-CEM leukemia, in the experiment on UO-31 renal, with RXF 393 renal, in the experiment with A498 renal and in the experiment on SNB-78 CNS was over 100 µM each time. Further, the TGI in the experiment with UACC-257 melanoma, in the experiment with LXFL 529 NSCLC, with TK-10 renal and in the experiment with DLD-1 colon was over 100 µM each time.

`COC(C(=O)[O][Ge]([CH3])([CH3])[CH3])c1ccccc1` (stereo not given): the GI50 in the experiment on COLO 205 colon, in the experiment with CCRF-CEM leukemia, in the experiment on UO-31 renal, with RXF 393 renal, in the experiment on A498 renal and with SNB-78 CNS was over 100 µM throughout. In addition, the GI50 in the experiment with UACC-257 melanoma, with LXFL 529 NSCLC, in the experiment with TK-10 renal and with DLD-1 colon was over 100 µM throughout. The TGI with COLO 205 colon, in the experiment with CCRF-CEM leukemia, in the experiment with UO-31 renal, in the experiment on RXF 393 renal, in the experiment with A498 renal and with SNB-78 CNS was over 100 µM in each case. Further, the TGI in the experiment on UACC-257 melanoma, in the experiment on LXFL 529 NSCLC, with TK-10 renal and in the experiment on DLD-1 colon was over 100 µM in each case.

For `C/C(=N\NS(=O)(=O)c1ccccc1)c1ccc(Cl)c(Cl)c1`, the TGI with COLO 205 colon is 85.3 µM; in the experiment on CCRF-CEM leukemia, over 100 µM; with UO-31 renal, over 100 µM; in the experiment with RXF 393 renal, over 100 µM; in the experiment with A498 renal it was over 100 µM; in the experiment with SNB-78 CNS, over 100 µM. Besides, the TGI in the experiment on UACC-257 melanoma, in the experiment with LXFL 529 NSCLC, in the experiment on TK-10 renal and in the experiment with DLD-1 colon was over 100 µM throughout.

For the compound `Cc1c(C(=O)C/C(=N\O)C(=O)Nc2cc(Cl)c(Cl)cc2Cl)[n+](=O)c2ccccc2n1[O-]`, the TGI in the experiment on COLO 205 colon is 12.6 µM; with CCRF-CEM leukemia it was over 100 µM; in the experiment with UO-31 renal, 78.2 µM; in the experiment with RXF 393 renal, 68.8 µM; in the experiment on A498 renal it was 56.2 µM; in the experiment with SNB-78 CNS, over 100 µM. Besides, the TGI turned out to be 20.2 µM in the experiment on UACC-257 melanoma, 30.8 µM in the experiment with LXFL 529 NSCLC, 72.2 µM in the experiment with TK-10 renal and 81.8 µM in the experiment on DLD-1 colon.

Consider `Cc1ccc(NC(=O)C(=O)C(C#N)c2ccccc2C)cc1C` (stereo not given), for which the TGI with COLO 205 colon was over 67.3 µM; in the experiment with CCRF-CEM leukemia it was over 100 µM; with UO-31 renal, over 100 µM; with RXF 393 renal it was over 100 µM; in the experiment with A498 renal it was over 100 µM; with SNB-78 CNS it was over 100 µM. Also, the TGI in the experiment with UACC-257 melanoma, in the experiment on LXFL 529 NSCLC, with TK-10 renal and with DLD-1 colon was over 100 µM throughout.

For `O=C(N/C(=C\c1ccc2c(c1)OCO2)c1nc2ccccc2[nH]1)c1ccccc1`, the TGI in the experiment with COLO 205 colon is over 60.3 µM; in the experiment on CCRF-CEM leukemia, over 89.2 µM; with UO-31 renal it was 99.8 µM; in the experiment with RXF 393 renal, 81.5 µM; with A498 renal it was over 93.8 µM; in the experiment on SNB-78 CNS it was over 95.9 µM. Further, the TGI in the experiment with UACC-257 melanoma was 35.8 µM; in the experiment with LXFL 529 NSCLC it was 97.4 µM; with TK-10 renal it was 92.3 µM; in the experiment with DLD-1 colon, over 100 µM.

As to `COc1ccc(OC)c(NC(=O)C2=C(C)NC(C)=C(C(=O)Nc3cc(OC)ccc3OC)C2c2ccccc2)c1`, the TGI in the experiment on COLO 205 colon, with CCRF-CEM leukemia, with UO-31 renal, in the experiment on RXF 393 renal, with A498 renal and in the experiment with SNB-78 CNS was over 100 µM throughout. In addition, the TGI in the experiment on UACC-257 melanoma, in the experiment with LXFL 529 NSCLC, in the experiment with TK-10 renal and in the experiment with DLD-1 colon was over 100 µM throughout.

For the compound `CC1=Nc2ccccc2S/C1=C(/C)NNC(=O)C(N)=O`, the TGI in the experiment on COLO 205 colon, with CCRF-CEM leukemia, with UO-31 renal, with RXF 393 renal, in the experiment on A498 renal and in the experiment on SNB-78 CNS was over 100 µM in each case. Moreover, the TGI in the experiment on UACC-257 melanoma, in the experiment on LXFL 529 NSCLC, in the experiment on TK-10 renal and with DLD-1 colon was over 100 µM in each case.

On to `Cc1cc(N(CCC#N)CCC#N)ccc1N=Nc1cccc(C(=O)O)c1`, for which the TGI with COLO 205 colon, with CCRF-CEM leukemia, with UO-31 renal, with RXF 393 renal, in the experiment on A498 renal and in the experiment with SNB-78 CNS was over 100 µM in each case. In addition, the TGI in the experiment on UACC-257 melanoma, in the experiment with LXFL 529 NSCLC, with TK-10 renal and in the experiment with DLD-1 colon was over 100 µM throughout.

As for `COC(=O)C(=O)C1(CCC(C)=O)c2ccccc2-c2c(C)ccc(C)c21` (stereo not given), the TGI is over 100 µM in the experiment with COLO 205 colon; over 100 µM in the experiment with CCRF-CEM leukemia; over 100 µM in the experiment on UO-31 renal; 76.1 µM in the experiment with RXF 393 renal; over 100 µM in the experiment with A498 renal; 78.5 µM with SNB-78 CNS. In addition, the TGI with UACC-257 melanoma was 91.8 µM; in the experiment with LXFL 529 NSCLC, over 100 µM; with TK-10 renal it was over 100 µM; in the experiment on DLD-1 colon, over 100 µM.
